Experiments:
CDK2-cycline E = CDK2-cycline E (Homo sapiens, UniProt P24941); assay: Kinase assay (radioactive phosphate incorporation), CDK2-cyclin E; format: biochemical; conditions: read-out: Kinase Inhibition pIC50 CDK2-cycline E (converted)
Method in brief: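 Each recombinant kinase was combined with its polypeptide substrate in pH 7.4 assay buffer. Mg/ATP mix carrying [γ-32P]-ATP (100 μM ATP) was then added and the plate incubated at 30° C. After stopping on ice, the reaction was filtered, washed with 75 mM orthophosphoric acid, dried and counted.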

CDK7/cyclin H = CDK7/cyclin H (Homo sapiens, UniProt P50613); assay: CDK 7 assay (CTD peptide substrate); format: biochemical; conditions: read-out: Kinase Inhibition pIC50 CDK7-cyclin H (converted)
Sequence of CDK7/cyclin H (P50613 whole entry): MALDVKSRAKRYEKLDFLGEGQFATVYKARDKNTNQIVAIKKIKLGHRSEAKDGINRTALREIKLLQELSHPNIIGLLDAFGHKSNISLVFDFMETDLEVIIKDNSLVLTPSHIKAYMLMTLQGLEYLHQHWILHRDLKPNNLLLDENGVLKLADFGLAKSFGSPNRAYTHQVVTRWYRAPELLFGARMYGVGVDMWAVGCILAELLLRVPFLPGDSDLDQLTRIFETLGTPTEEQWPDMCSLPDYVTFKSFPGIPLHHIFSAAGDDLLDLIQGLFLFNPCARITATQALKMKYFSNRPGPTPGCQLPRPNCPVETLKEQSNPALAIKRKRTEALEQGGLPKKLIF
Sequence of CDK7/cyclin H (P51946 whole entry partner): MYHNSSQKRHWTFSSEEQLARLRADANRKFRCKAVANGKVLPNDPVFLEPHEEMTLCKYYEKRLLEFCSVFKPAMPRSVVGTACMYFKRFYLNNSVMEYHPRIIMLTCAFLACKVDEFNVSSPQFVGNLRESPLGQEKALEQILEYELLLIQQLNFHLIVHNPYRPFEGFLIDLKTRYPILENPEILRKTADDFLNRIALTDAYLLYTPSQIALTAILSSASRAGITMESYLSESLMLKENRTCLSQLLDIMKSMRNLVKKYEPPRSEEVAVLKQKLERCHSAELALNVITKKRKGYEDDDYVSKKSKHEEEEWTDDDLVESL
Protocol: (§1) Kinase assays. The compounds of the invention above were investigated for their ability to inhibit the enzymatic activity of various protein kinases (Table 2). This was achieved by measurement of incorporation of radioactive phosphate from ATP into appropriate polypeptide substrates. Recombinant protein kinases and kinase complexes were produced or obtained commercially. Assays were performed using 96-well plates and appropriate assay buffers (typically 25 mM β-glycerophosphate, 20 mM MOPS, 5 mM EGTA, 1 mM DTT, 1 mM […], pH 7.4), into which were added 2-4 μg of active enzyme with appropriate substrates. The reactions were initiated by addition of Mg/ATP mix (15 mM MgCl2+100 μM ATP with 30-50 kBq per well of [γ-^32P]-ATP) and mixtures incubated as required at 30° C. Reactions were stopped on ice, followed by filtration through p81 filterplates or GF/C filterplates (Whatman Polyfiltronics, Kent, UK). After washing 3 times with 75 mM aq orthophosphoric acid, plates were dried, scintillant added and incorporated radioactivity measured in a scintillation counter (TopCount, Packard Instruments, Pangbourne, Berks, UK). Compounds for kinase assay were made up as 10 mM stocks in DMSO and diluted into 10% DMSO in assay buffer.
(§2) CDK 7 and 9 assays. CTD peptide substrate (biotinyl-Abx-(Tyr-Ser-Pro-Thr-Ser-Pro-Ser)4-NH2; 1-2 mg/mL) and recombinant human CDK7/cyclin H, CDK9/cyclin T1, or CDK9/cyclin K (0.5-2 μg) were incubated for 45 min at 30° C. in the presence of varying amounts of test compound in 20 mM MOPS pH 7.2, 25 mM β-glycerophosphate, 5 mM EGTA, 1 mM DTT, 1 mM sodium vanadate, 15 mM MgCl2, and 100 μM ATP (containing a trace amount of ^32PγATP) in a total volume of 25 μL in a 96-well microtiter plate. The reaction was stopped by placing the plate on ice for 2 min. Avidin (50 μg) was added to each well, and the plate was incubated at room temp for 30 min. The samples were transferred to a 96-well P81 filter plate, and washed (4×200 μL per well) with 75 mM phosphoric acid. Microscint 40 scintillation liquid (50 μL) was added to each well, and the amount of ^32P incorporation for each sample was measured using a Packard Topcount microplate scintillation counter.

[1] = target: T1, Flt3 (FMS-like tyrosine kinase-3) (Homo sapiens, UniProt P36888); assay: Kinase assay (radioactive phosphate incorporation), Flt3; format: biochemical; conditions: pIC50 is -log(IC50, M), read-out: Kinase Inhibition pIC50 Flt3 (converted)
T1 sequence (P36888 27-993): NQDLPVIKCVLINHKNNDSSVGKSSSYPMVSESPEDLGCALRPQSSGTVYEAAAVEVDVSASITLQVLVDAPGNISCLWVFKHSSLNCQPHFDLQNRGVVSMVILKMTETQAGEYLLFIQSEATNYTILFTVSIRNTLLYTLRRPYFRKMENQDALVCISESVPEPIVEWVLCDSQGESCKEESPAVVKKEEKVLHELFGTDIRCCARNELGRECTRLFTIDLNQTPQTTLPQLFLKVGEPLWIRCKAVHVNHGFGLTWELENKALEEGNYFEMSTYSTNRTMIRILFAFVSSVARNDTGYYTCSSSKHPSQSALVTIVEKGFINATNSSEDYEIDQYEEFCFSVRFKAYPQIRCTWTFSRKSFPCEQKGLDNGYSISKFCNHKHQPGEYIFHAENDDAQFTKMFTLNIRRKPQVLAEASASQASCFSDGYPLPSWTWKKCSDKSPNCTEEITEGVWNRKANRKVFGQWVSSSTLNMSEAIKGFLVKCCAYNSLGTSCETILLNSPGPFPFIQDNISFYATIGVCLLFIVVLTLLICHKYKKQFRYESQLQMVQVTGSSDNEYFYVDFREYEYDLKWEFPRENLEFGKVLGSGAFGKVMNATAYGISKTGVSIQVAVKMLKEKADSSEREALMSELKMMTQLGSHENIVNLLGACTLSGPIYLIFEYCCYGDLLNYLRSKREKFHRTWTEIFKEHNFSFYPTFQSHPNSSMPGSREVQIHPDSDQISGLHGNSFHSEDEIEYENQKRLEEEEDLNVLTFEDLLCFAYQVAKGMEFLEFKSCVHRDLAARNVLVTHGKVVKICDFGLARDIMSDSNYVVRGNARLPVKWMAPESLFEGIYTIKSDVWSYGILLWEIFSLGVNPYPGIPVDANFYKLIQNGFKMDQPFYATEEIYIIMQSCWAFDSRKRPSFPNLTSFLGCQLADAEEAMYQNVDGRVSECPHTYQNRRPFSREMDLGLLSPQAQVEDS
Protocol: as §1

CDK9/cyclin T1 = CDK9/cyclin T1 (Homo sapiens, UniProt P50750); assay: CDK 9 assay (CTD peptide substrate); format: biochemical; conditions: read-out: Kinase Inhibition pIC50 CDK9-cyclin T1 (converted)
Sequence of CDK9/cyclin T1 (P50750 whole entry): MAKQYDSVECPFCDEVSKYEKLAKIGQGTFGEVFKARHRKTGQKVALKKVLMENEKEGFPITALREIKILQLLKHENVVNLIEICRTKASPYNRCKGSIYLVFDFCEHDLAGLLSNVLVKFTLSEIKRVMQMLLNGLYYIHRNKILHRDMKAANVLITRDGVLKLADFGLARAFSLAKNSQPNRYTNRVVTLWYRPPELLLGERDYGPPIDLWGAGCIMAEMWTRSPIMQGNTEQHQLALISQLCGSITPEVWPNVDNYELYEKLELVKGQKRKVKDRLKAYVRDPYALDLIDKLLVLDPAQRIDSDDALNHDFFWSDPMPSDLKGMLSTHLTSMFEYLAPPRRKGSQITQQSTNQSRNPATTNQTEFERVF
Sequence of CDK9/cyclin T1 (O60563 whole entry partner): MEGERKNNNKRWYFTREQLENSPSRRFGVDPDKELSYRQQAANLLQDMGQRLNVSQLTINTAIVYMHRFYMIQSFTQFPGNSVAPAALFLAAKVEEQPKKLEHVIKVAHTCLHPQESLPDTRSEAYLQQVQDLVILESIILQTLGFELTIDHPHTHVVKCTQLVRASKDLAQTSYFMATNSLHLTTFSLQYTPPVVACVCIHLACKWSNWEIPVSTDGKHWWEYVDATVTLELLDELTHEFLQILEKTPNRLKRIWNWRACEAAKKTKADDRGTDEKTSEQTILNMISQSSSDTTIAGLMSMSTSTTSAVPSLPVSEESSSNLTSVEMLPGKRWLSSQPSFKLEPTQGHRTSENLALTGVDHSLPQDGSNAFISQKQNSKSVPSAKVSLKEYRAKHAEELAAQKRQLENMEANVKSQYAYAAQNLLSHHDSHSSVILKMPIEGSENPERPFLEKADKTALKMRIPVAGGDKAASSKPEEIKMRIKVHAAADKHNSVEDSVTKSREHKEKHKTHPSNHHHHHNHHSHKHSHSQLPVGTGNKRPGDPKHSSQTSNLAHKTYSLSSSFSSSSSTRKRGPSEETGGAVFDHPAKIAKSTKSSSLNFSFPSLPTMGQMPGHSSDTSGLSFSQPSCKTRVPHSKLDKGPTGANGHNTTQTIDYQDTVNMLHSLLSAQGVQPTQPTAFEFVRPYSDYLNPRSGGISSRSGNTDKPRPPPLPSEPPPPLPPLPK
Protocol: as §1, §2

Aurora A kinase = target: T2, Aurora A kinase (Homo sapiens, UniProt O14965); assay: Aurora-A (human) kinase assay (Kemptide substrate); format: biochemical; conditions: pIC50 is -log(IC50, M); 15 μM ATP; read-out: Kinase Inhibition pIC50 Aurora A kinase (converted)
T2 construct: purchased
T2 sequence (O14965 1-403): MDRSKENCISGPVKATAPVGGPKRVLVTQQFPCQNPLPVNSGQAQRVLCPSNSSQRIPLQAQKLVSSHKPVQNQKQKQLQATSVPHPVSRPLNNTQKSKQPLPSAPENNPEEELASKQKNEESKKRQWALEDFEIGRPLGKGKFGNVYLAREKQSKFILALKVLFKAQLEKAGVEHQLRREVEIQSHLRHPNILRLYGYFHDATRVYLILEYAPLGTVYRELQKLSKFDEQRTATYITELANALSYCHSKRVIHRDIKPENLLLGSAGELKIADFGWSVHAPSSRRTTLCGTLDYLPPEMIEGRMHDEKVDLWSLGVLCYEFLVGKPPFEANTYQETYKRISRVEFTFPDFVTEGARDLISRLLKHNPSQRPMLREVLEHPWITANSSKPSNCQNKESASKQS
Method in brief: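 Kemptide (LRRASLG, 200 μM) phosphorylation by 5-10 ng commercial aurora-A measured as [γ-33P] incorporation at 15 μM ATP with 10 mM Mg acetate, pH 7.0 MOPS buffer. Reaction ran 40 min at room temperature; acid-stopped, captured on P81 filters, scintillation read.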

Q: Which IC50 (CDK2-cycline E) does the source give for `COCCOC(=O)Cc1cccc(Nc2nccc(-c3sc(N)nc3C)n2)c1` [Compound 1, {3-[4-(2-Amino-4-methyl-thiazol-5-yl)-pyrimidin-2-ylamino]-phenyl}-acetic acid 2-methoxy-ethyl ester] here?
A: Its IC50 is 1000 nM.

Q: What about the IC50 (CDK7/cyclin H) of the same molecule?
A: The IC50 was 3160 nM.

Q: And the IC50 [1]?
A: Its IC50 is 126 nM.

Q: With `COc1cc(Nc2nccc(-c3sc(C)nc3C)n2)cc(OC)c1OC` [Compound 25, [4-(2,4-Dimethyl-thiazol-5-yl)-pyrimidin-2-yl]-(3,4,5-trimethoxy-phenyl)-amine] as the molecule, how does the IC50 (CDK7/cyclin H) read?
A: Its IC50 is 3160 nM.

Q: What about the IC50 (CDK9/cyclin T1) of the same molecule?
A: Its IC50 is 2000 nM.

Q: What about the IC50 [1] of the same molecule?
A: Its IC50 is 63.1 nM.

Q: What about the IC50 (Aurora A kinase) of the same molecule?
A: Its IC50 is 20 nM.

Q: With `Cc1nc(NCc2ccccc2)sc1-c1ccnc(Nc2ccc(N3CCOCC3)cc2)n1` [Compound 117, [4-(2-Benzylamino-4-methyl-thiazol-5-yl)-pyrimidin-2-yl]-(4-morpholin-4-yl-phenyl)-amine] as the molecule, how does the melting point read?
A: The melting point was 180 to 183 °C.

Q: For `Cc1nc(C)c(-c2ccnc(Nc3ccc(N4CC(C)OC(C)C4)cc3)n2)s1` (stereo not shown) [Compound 121, [4-(2,6-Dimethyl-morpholin-4-yl)-phenyl]-[4-(2,4-dimethyl-thiazol-5-yl)-pyrimidin-2-yl]-amine], which IC50 (CDK2-cycline E) is on record?
A: The IC50 was 5010 nM.

Q: And the IC50 (CDK9/cyclin T1)?
A: Its IC50 is 3980 nM.

Q: And the IC50 [1]?
A: Its IC50 is 398 nM.

Q: What about the IC50 (Aurora A kinase) of the same molecule?
A: Its IC50 is 39.8 nM.

Q: For `Cc1nc(-c2cccnc2)sc1-c1ccnc(Nc2ccc(N3CCOCC3)c(Cl)c2)n1` [Compound 127, (3-Chloro-4-morpholin-4-yl-phenyl)-[4-(4-methyl-2-pyridin-3-yl-thiazol-5-yl)-pyrimidin-2-yl]-amine], which melting point is on record?
A: The melting point was 230 to 231 °C.

Q: For `CCNc1nc(C)c(-c2ccnc(Nc3cc(Cl)c(N4CCOCC4)c(Cl)c3)n2)s1` [Compound 133, (3,5-Dichloro-4-morpholin-4-yl-phenyl)-[4-(2-ethylamino-4-methyl-thiazol-5-yl)-pyrimidin-2-yl]-amine], which melting point is on record?
A: The melting point was greater than 300 °C.

Q: Which melting point does the source give for `Cc1nc(-c2nc(C)c(-c3ccnc(Nc4cc(Cl)c(N5CCOCC5)c(Cl)c4)n3)s2)cs1` [Compound 137, (3,5-Dichloro-4-morpholin-4-yl-phenyl)-[4-(4,2′-dimethyl-[2,4′]bithiazolyl-5-yl)-pyrimidin-2-yl]-amine] here?
A: The melting point was greater than 300 °C.

Q: With `Cc1nc(C)c(-c2ccnc(Nc3ccc(O)c(CN4CCOCC4)c3)n2)s1` [Compound 151, 4-[4-(2,4-Dimethyl-thiazol-5-yl)-pyrimidin-2-ylamino]-2-morpholin-4-ylmethyl-phenol] as the molecule, how does the IC50 (CDK2-cycline E) read?
A: Its IC50 is 200 nM.

Q: What about the IC50 [1] of the same molecule?
A: Its IC50 is 63.1 nM.

Q: And the IC50 (Aurora A kinase)?
A: Its IC50 is 63.1 nM.

Q: For `Cc1nc(C)c(-c2ccnc(Nc3cccc(N4CCOCC4)c3)n2)s1` [Compound 152, [4-(2,4-Dimethyl-thiazol-5-yl)-pyrimidin-2-yl]-(3-morpholin-4-yl-phenyl)-amine], which IC50 (CDK2-cycline E) is on record?
A: Its IC50 is 316 nM.

Q: What about the IC50 [1] of the same molecule?
A: The IC50 was 31.6 nM.

Q: And the IC50 (Aurora A kinase)?
A: Its IC50 is 50.1 nM.

Q: For `COc1cc(Nc2nccc(-c3sc(-c4cccnc4)nc3C)n2)cc(OC)c1` [Compound 155, (3,5-Dimethoxy-phenyl)-[4-(4-methyl-2-pyridin-3-yl-thiazol-5-yl)-pyrimidin-2-yl]-amine], which melting point is on record?
A: The melting point was 229 to 230 °C.

Q: With `Cc1nc(N(C)c2cccnc2)sc1-c1ccnc(Nc2ccc(N3CCOCC3)cc2)n1` [Compound 162, {4-[4-Methyl-2-(methyl-pyridin-3-yl-amino)-thiazol-5-yl]-pyrimidin-2-yl}-(4-morpholin-4-yl-phenyl)-amine] as the molecule, how does the IC50 (CDK2-cycline E) read?
A: Its IC50 is 3160 nM.

Q: And the IC50 (CDK9/cyclin T1)?
A: The IC50 was 3160 nM.

Q: What about the IC50 [1] of the same molecule?
A: The IC50 was 63.1 nM.

Q: And the IC50 (Aurora A kinase)?
A: The IC50 was 126 nM.

Q: For `Cc1nc(NCCc2ccccc2)sc1-c1ccnc(Nc2ccc(N3CCN(Cc4ccccc4)CC3)cc2)n1` [Compound 166, [4-(4-Benzyl-piperazin-1-yl)-phenyl]-[4-(4-methyl-2-phenethylamino-thiazol-5-yl)-pyrimidin-2-yl]-amine], which melting point is on record?
A: The melting point was 191 to 192 °C.

Q: Which IC50 (CDK2-cycline E) does the source give for `COc1cc(Nc2nccc(-c3sc(N)nc3C)n2)cc(OC)c1OC` [Compound 168, [4-(2-Amino-4-methyl-thiazol-5-yl)-pyrimidin-2-yl]-(3,4,5-trimethoxy-phenyl)-amine] here?
A: Its IC50 is 398 nM.

Q: And the IC50 (CDK7/cyclin H)?
A: The IC50 was 1260 nM.

Q: And the IC50 (CDK9/cyclin T1)?
A: Its IC50 is 316 nM.

Q: What about the IC50 [1] of the same molecule?
A: The IC50 was 5.01 nM.

Q: And the IC50 (Aurora A kinase)?
A: The IC50 was 31.6 nM.

Q: What does the source list for `CCNc1nc(C)c(-c2ccnc(Nc3ccc(N4CC(C)OC(C)C4)cc3)n2)s1` (stereo not shown) [Compound 169, [4-(2,6-Dimethyl-morpholin-4-yl)-phenyl]-[4-(2-ethylamino-4-methyl-thiazol-5-yl)-pyrimidin-2-yl]-amine]?
A: IC50 (CDK2-cycline E): 1580 nM; IC50 (CDK9/cyclin T1): 3160 nM; IC50 [1]: 39.8 nM; IC50 (Aurora A kinase): 50.1 nM

Q: What does the source list for `CNc1nc(C)c(-c2ccnc(Nc3cc(OC)cc(OC)c3)n2)s1` [Compound 170, (3,5-Dimethoxy-phenyl)-[4-(4-methyl-2-methylamino-thiazol-5-yl)-pyrimidin-2-yl]-amine]?
A: IC50 (CDK2-cycline E): 316 nM; IC50 [1]: 10 nM; IC50 (Aurora A kinase): 63.1 nM

Q: Which IC50 (CDK2-cycline E) does the source give for `Cc1nc(C)c(-c2ccnc(Nc3ccc(CN4CCOCC4)cc3)n2)s1` [Compound 174, [4-(2,4-Dimethyl-thiazol-5-yl)-pyrimidin-2-yl]-(4-morpholin-4-ylmethyl-phenyl)-amine] here?
A: The IC50 was 1260 nM.

Q: What about the IC50 (CDK7/cyclin H) of the same molecule?
A: Its IC50 is 251 nM.

Q: And the IC50 (CDK9/cyclin T1)?
A: Its IC50 is 1000 nM.

Q: What about the IC50 [1] of the same molecule?
A: The IC50 was 158 nM.

Q: What about the IC50 (Aurora A kinase) of the same molecule?
A: The IC50 was 100 nM.

Q: With `COc1cc(Nc2nccc(-c3sc(C)nc3C)n2)cc(OC)c1` [Compound 175, (3,5-Dimethoxy-phenyl)-[4-(2,4-dimethyl-thiazol-5-yl)-pyrimidin-2-yl]-amine] as the molecule, how does the IC50 (CDK2-cycline E) read?
A: Its IC50 is 1260 nM.

Q: What about the IC50 (CDK7/cyclin H) of the same molecule?
A: Its IC50 is 5010 nM.

Q: And the IC50 (CDK9/cyclin T1)?
A: The IC50 was 1580 nM.

Q: And the IC50 [1]?
A: The IC50 was 39.8 nM.

Q: What about the IC50 (Aurora A kinase) of the same molecule?
A: Its IC50 is 79.4 nM.
